Data taken from patent publication US20150374646A1, “TREATMENT OF CANCER AND OTHER CONDITIONS USING A TRANSCRIPTION FACTOR MODULATOR” (C & C BIOPHARMA, LLC, priority 2013, published 2015).

Legend:
[1] = test system: RPMI-8226; assay: Leukemia cell growth inhibition, CellTiter-Glo (Example 1); assay type: cell-based; conditions: Homo sapiens; RPMI-8226, Multiple myeloma; 72 hours
Procedure: (§1) Various human leukemia cells were grown to the logarithmic growth phase and seeded into 24-well plates. […] Treated cells were further incubated for 72 hours and then were examined for cell proliferation. Cell proliferation was determined using the CellTiter-Glo Luminescence Cell Viability assay (Promega Corporation, Madison, Wis.) according to the manufacturer's protocol. The calculated inhibition rate was determined with the following formula: Inhibition rate (%)=(1−Luminescence of experimental group/Luminescence of control group)×100. IC50 is the calculated concentration of a compound needed to inhibit half of the maximum cell growth (equivalent to cell growth in control group) based on the corresponding dose-response curve under the described experimental conditions.

[2] = test system: SEM cells; assay: as above; assay type: cell-based; conditions: Homo sapiens, ALL (B-cell), 72 hours
Procedure: as §1

[3] = test system: SR; assay: as above; assay type: cell-based; conditions: Homo sapiens, Lymphoma, 72 hours
Procedure: as §1

[4] = test system: BaF3 BCR-ABL T315I; assay: as above; assay type: cell-based; conditions: Mouse cell line with BCR-ABL with T315I point mutation (Gleevec resistant), 72 hours
Procedure: as §1

[5] = test system: Nalm-6 cells; assay: Survival of BALB/c nude mice with Nalm-6 acute B cell lymphoblastic leukemia (Example 2); assay type: in vivo
Procedure: BALB/c nu/nu nude mice were 4 to 5 weeks old with an average weight of 22.4±1.03 grams. The mice were raised under specific pathogen-free (SPF) conditions and had access to food and water freely. Cyclophosphamide at about 130 mg/kg per day was administrated with intraperitoneal (IP) injection for 2 days. Twenty-four hours later, a suspension of 3.5×10^6 or 5×10^6 Nalm-6 cells (0.2 mL) were injected through tail vein of each BALB/c nude mouse. Five days later, the mice were randomly divided into a YT30 treated group (n=5) and a solvent control group (n=5).
Mice in the YT30 treated group were intraperitoneally injected with 200 μL of YT30 (50 mg/kg) once a day, for 5 days a week, and for 3 or 4 weeks. The mice in the solvent control group were intraperitoneally injected with the same volume of solvent (20% DMSO, 80% of 20% w/v (2-hydroxypropyl)-β-cyclodextrin in PBS), and were on the same treatment schedule as the YT30 treated group. The body weights of the mice were recorded prior to the start of the treatment and at least twice a week thereafter. The dosages were adjusted according to the body weight to conform to the 50 mg/kg/day treatment plan. Each mouse of every group was also monitored daily for any other symptoms of side effects including change in behavior, activity or posture, areas of redness and swelling, and food and water withdrawal. […] Dates of death were recorded.

[6] = test system: MV4-11; assay: Leukemia cell growth inhibition, CellTiter-Glo (Example 1); assay type: cell-based; conditions: Homo sapiens; MV4-11, B-myelomonocytic (Biphenotypic B-cell leukemia); 72 hours
Procedure: as §1

[7] = test system: RCH-ACV; assay: as above; assay type: cell-based; conditions: Homo sapiens, ALL (B-cell), 72 hours
Procedure: as §1

[8] = test system: K562 cells; assay: Subcutaneous K562 (CML) tumor growth in SCID mice (Example 6); assay type: in vivo; conditions: for Average body weight, End point / Average body weight, Initial / Tumor size / Tumor weight: x ± s; for Average body weight, Initial: initial (before treatment)
Procedure: Male Severe Combined Immunodeficiency (SCID) mice that were 4-6 weeks old were used in the experiment. The mice were fed under specific pathogen free (SPF) conditions. Food and water were available to the mice at will. A suspension of 8×10^6 chronic myelogenous leukemia K562 cells (0.2 mL) was inoculated subcutaneously into the right back of the SCID mice.
The general conditions of the mice and the growth of the transplanted tumor were monitored. […] The control group received an intraperitoneal injection (IP) of 0.2 mL solvent (20% DMSO, 80% of 20% w/v (2-hydroxypropyl)-β-cyclodextrin made in PBS). […] The YT30 treated groups received either intraperitoneal injection of 50 mg/kg/day of YT30 (0.2 mL in volume) suspended in solvent (20% DMSO, 80% of 20% w/v (2-hydroxypropyl)-β-cyclodextrin made in PBS) or oral gavage of 90 mg/kg/day YT30 in solvent (Cremophor RH40:TW80:PEG400 (2:1:1)). Frequency of the administration was once per day and the experiment lasted 16 days after initiation of the treatment.
The body weights of the mice were recorded prior to the start of treatment and twice every week thereafter. Each mouse of every group was monitored daily for any other symptoms of side effects including change in behavior, activity or posture, areas of redness and swelling, and food and water withdrawal. Caliper measurements of the longest perpendicular tumor diameters were performed every 2 days to estimate the tumor volume; the following formula: 4π/3×(width/2)^2×(length/2) was used to calculate the three-dimensional volume of an ellipse. The tumor inhibition rate was calculated according to tumor volume: Tumor inhibition rate by size (%)=(Tumor volume of the control group−Tumor volume of the treated group)/Tumor volume of the control group×100. The SCID mice were euthanized 2 hours after the final injection and the subcutaneous tumor nodules were taken out intact and weighed. The tumor inhibition rate was calculated again according to tumor weight: Tumor inhibition rate by weight (%)=(Tumor weight of the control group−Tumor weight of the treated group)/Tumor weight of the control group×100.

[9] = YT30 50 mg/kg i.p. × 16 days, SCID mice, K562 tumor
[10] = YT30 90 mg/kg p.o. × 16 days, SCID mice, K562 tumor

## Nc1ccccc1NC(=O)CCCCCC(=O)Nc1cccc(Br)c1 [YT30]
[1]
  IC50: 2 µM
[2]
  IC50: 1.15 µM
[3]
  IC50: 6.89 µM
[4]
  IC50: 1.11 µM
[5]; IP 50 mg/kg qd for 5 days/week, 3 weeks, 5 × 10^6 Nalm-6 cells, 50 mg/kg
  Average life span after inoculation for IP 50 mg/KG group: 48.8 ± 9.7 days
[5]; IP 50 mg/kg, 4 weeks, 3.5 × 10^6 Nalm-6 cells, euthanized 341 days after treatment start
  Mice that appeared to be cured: three out of five
[6]
  IC50: 4.06 µM
[7]
  IC50: 0.79 µM
[8]; [9]
  Body weight change: −8.67%
  Tumor growth inhibition by size: 44.07%
  Tumor growth inhibition by weight: 40.76%
  Average body weight, End point: 16.75 ± 1.57 g
  Average body weight, Initial: 18.34 ± 0.73 g
  Tumor size: 1741.11 ± 1218.90 mm^3
  Tumor weight: 2.16 ± 1.86 g
[8]; [10]
  Body weight change: −5.30%
  Tumor growth inhibition by size: 41.77%
  Tumor growth inhibition by weight: 33.17%
  Average body weight, End point: 17.70 ± 2.03 g
  Average body weight, Initial: 18.69 ± 1.36 g
  Tumor size: 1812.71 ± 581.68 mm^3
  Tumor weight: 2.44 ± 0.92 g
[8]; intraperitoneal 50 mg/kg/day, 16 days of treatment
  Tumor growth inhibition by weight: 40.76%
[8]; oral gavage 90 mg/kg/day, 16 days of treatment
  Tumor growth inhibition by weight: 33.17%
